According to PMC11983575, “Study on the synthesis and biological activity of kojic acid triazol thiosemicarbazide Schiff base derivatives” (Journal of Enzyme Inhibition and Medicinal Chemistry, 2025):

Columns and labels:
[1] = ABTS radical cation scavenging activity assay; settings: 734 nm; read-out: ABTS+/IC50 (μM) ± SD
Protocol: ABTS free radical scavenging activity was performed according to the procedure described by Zhang et al.[40] Test solution of ABTS decolourisation assay was prepared by mixing 2.45 mM potassium persulfate and 7 mM ABTS at 8:12 volume/volume ratio. The working solution was kept in the dark at room temperature for 12–18 h. Before ABTS radical scavenging test, the ABTS test solution was diluted with DMSO to absorbance of 0.7 (±0.02) at 734 nm. One millilitre of diluted ABTS test solution was added to 10 μl of DMSO or test sample. After initial mixing, the working solution was kept in the dark at room temperature for 2–6 min, and the absorbance was measured at 734 nm. This test was carried out in triplicate. DMSO was used as a control. Ascorbic acid was used as antioxidant standard for comparison of the activity. The absorbance of test samples was calculated by the following formula. ABTS scavenging ability %=absorbance of standard−absorbance of sample/absorbance of standard×100.

[2] = DPPH free radical scavenging activity assay; settings: DPPH 150 μM, 30 min, 517 nm; read-out: DPPH/IC50 (μM) ± SD
Protocol: The anti-oxidation effect on DPPH radical was determined by a slightly modified version of a previously described DPPH radical scavenging assay. Reaction mixtures consisted of 100 μl of DPPH (150 μM), 20 μl of increasing concentration of test compounds and the volume was adjusted to 200 μl in each well with DMSO. The assay solution was then incubated at room temperature (25 °C) for 30 min in the dark. After the incubation, absorbance at 517 nm was measured by using UV-2600 spectrophotometer. The experiments were undertaken in triplicate. DMSO was used as a control. Ascorbic acid was used as antioxidant standard for comparison of the activity. The calculation of DPPH radical scavenging activity was followed by this formula: DPPH radical scavenging activity %=absorbance of standard−absorbance of sample/Absorbance of standard×100

Compound | IC50 [1] | IC50 [2]
NC(=S)NN=Cc1ccccc1OCc1cn(Cc2cc(=O)c(O)co2)nn1 [Compound 6a, (2-((1-((5-Hydroxy-4-oxo-4H-pyran-2-yl)methyl)-1H-1,2,3-triazol-4-yl)methoxy)benzylidene)hydrazinecarbothioamide] | 43.89 ± 0.034 µM | 173.2 ± 0.058 µM
NC(=S)NN=Cc1ccc(F)cc1OCc1cn(Cc2cc(=O)c(O)co2)nn1 [Compound 6b, 2-(4-Fluoro-2-((1-((5-hydroxy-4-oxo-4H-pyran-2-yl)methyl)-1H-1,2,3-triazol-4-yl)methoxy)benzylidene)hydrazinecarbothioamide] | 63.1 ± 0.042 µM | 105.4 ± 0.115 µM
NC(=S)NN=Cc1ccc(Cl)cc1OCc1cn(Cc2cc(=O)c(O)co2)nn1 [Compound 6c, 2-(4-Chloro-2-((1-((5-hydroxy-4-oxo-4H-pyran-2-yl)methyl)-1H-1,2,3-triazol-4-yl)methoxy)benzylidene)hydrazinecarbothioamide] | 72.03 ± 0.084 µM | 104.7 ± 0.088 µM
NC(=S)NN=Cc1ccc(Br)cc1OCc1cn(Cc2cc(=O)c(O)co2)nn1 [Compound 6d, 2-(4-Bromo-2-((1-((5-hydroxy-4-oxo-4H-pyran-2-yl)methyl)-1H-1,2,3-triazol-4-yl)methoxy)benzylidene)hydrazinecarbothioamide] | 91.1 ± 0.033 µM | 71.43 ± 0.036 µM
COc1ccc(C=NNC(N)=S)c(OCc2cn(Cc3cc(=O)c(O)co3)nn2)c1 [Compound 6e, 2-(2-((1-((5-Hydroxy-4-oxo-4H-pyran-2-yl)methyl)-1H-1,2,3-triazol-4-yl)methoxy)-4-methoxybenzylidene)hydrazinecarbothioamide] | 8.24 ± 0.048 µM | 87.47 ± 0.144 µM
Cc1ccc(C=NNC(N)=S)c(OCc2cn(Cc3cc(=O)c(O)co3)nn2)c1 [Compound 6f, 2-(2-((1-((5-Hydroxy-4-oxo-4H-pyran-2-yl)methyl)-1H-1,2,3-triazol-4-yl)methoxy)-4-methylbenzylidene)hydrazinecarbothioamide] | 34.95 ± 0.061 µM | 99.6 ± 0.056 µM
NC(=S)NN=Cc1cc(Cl)ccc1OCc1cn(Cc2cc(=O)c(O)co2)nn1 [Compound 6g, 2-(5-Chloro-2-((1-((5-hydroxy-4-oxo-4H-pyran-2-yl)methyl)-1H-1,2,3-triazol-4-yl)methoxy)benzylidene)hydrazinecarbothioamide] | 52.65 ± 0.109 µM | 133.8 ± 0.048 µM
NC(=S)NN=Cc1cc(Br)ccc1OCc1cn(Cc2cc(=O)c(O)co2)nn1 [Compound 6h, 2-(5-Bromo-2-((1-((5-hydroxy-4-oxo-4H-pyran-2-yl)methyl)-1H-1,2,3-triazol-4-yl)methoxy)benzylidene)hydrazinecarbothioamide] | 68.49 ± 0.091 µM | 118.4 ± 0.049 µM
Cc1ccc(OCc2cn(Cc3cc(=O)c(O)co3)nn2)c(C=NNC(N)=S)c1 [Compound 6i, 2-(2-((1-((5-Hydroxy-4-oxo-4H-pyran-2-yl)methyl)-1H-1,2,3-triazol-4-yl)methoxy)-5-methylbenzylidene)hydrazinecarbothioamide] | 61.66 ± 0.091 µM | 248.1 ± 0.041 µM

Results, then the compound that gave them:

IC50 [1] | IC50 [2] | Compound
6.78 ± 0.082 µM | 25.6 ± 0.031 µM | CCOc1cccc(C=NNC(N)=S)c1OCc1cn(Cc2cc(=O)c(O)co2)nn1 [Compound 6j, 2-(3-Ethoxy-2-((1-((5-hydroxy-4-oxo-4H-pyran-2-yl)methyl)-1H-1,2,3-triazol-4-yl)methoxy)benzylidene)hydrazinecarbothioamide]
9.31 ± 0.022 µM | 49.17 ± 0.077 µM | CC(C)(C)c1cccc(C=NNC(N)=S)c1OCc1cn(Cc2cc(=O)c(O)co2)nn1 [Compound 6k, 2-(3-(Tert-butyl)-2-((1-((5-hydroxy-4-oxo-4H-pyran-2-yl)methyl)-1H-1,2,3-triazol-4-yl)methoxy)benzylidene)hydrazinecarbothioamide]
3.19 ± 0.034 µM | 10.53 ± 0.014 µM | CC(=NNC(N)=S)c1ccccc1OCc1cn(Cc2cc(=O)c(O)co2)nn1 [Compound 6p, 2-(1-(2-((1-((5-Hydroxy-4-oxo-4H-pyran-2-yl)methyl)-1H-1,2,3-triazol-4-yl)methoxy)phenyl)ethylidene)hydrazinecarbothioamide]
6.61 ± 0.054 µM | 47.05 ± 0.042 µM | CC(=NNC(N)=S)c1ccc(F)cc1OCc1cn(Cc2cc(=O)c(O)co2)nn1 [Compound 6q, 2-(1-(4-Fluoro-2-((1-((5-hydroxy-4-oxo-4H-pyran-2-yl)methyl)-1H-1,2,3-triazol-4-yl)methoxy)phenyl)ethylidene)hydrazinecarbothioamide]
4.49 ± 0.103 µM | 53.54 ± 0.088 µM | CC(=NNC(N)=S)c1ccc(Cl)cc1OCc1cn(Cc2cc(=O)c(O)co2)nn1 [Compound 6r, 2-(1-(4-Chloro-2-((1-((5-hydroxy-4-oxo-4H-pyran-2-yl)methyl)-1H-1,2,3-triazol-4-yl)methoxy)phenyl)ethylidene)hydrazinecarbothioamide]
11.29 ± 0.033 µM | 105.8 ± 0.092 µM | CC(=NNC(N)=S)c1ccc(Br)cc1OCc1cn(Cc2cc(=O)c(O)co2)nn1 [Compound 6s, 2-(1-(4-Bromo-2-((1-((5-hydroxy-4-oxo-4H-pyran-2-yl)methyl)-1H-1,2,3-triazol-4-yl)methoxy)phenyl)ethylidene)hydrazinecarbothioamide]
3.91 ± 0.064 µM | 86.3 ± 0.058 µM | COc1ccc(C(C)=NNC(N)=S)c(OCc2cn(Cc3cc(=O)c(O)co3)nn2)c1 [Compound 6t, 2-(1-(2-((1-((5-Hydroxy-4-oxo-4H-pyran-2-yl)methyl)-1H-1,2,3-triazol-4-yl)methoxy)-4-methoxyphenyl)ethylidene)hydrazinecarbothioamide]
5.27 ± 0.078 µM | 55.7 ± 0.154 µM | CC(=NNC(N)=S)c1ccc(C)cc1OCc1cn(Cc2cc(=O)c(O)co2)nn1 [Compound 6u, 2-(1-(2-((1-((5-Hydroxy-4-oxo-4H-pyran-2-yl)methyl)-1H-1,2,3-triazol-4-yl)methoxy)-4-methylphenyl)ethylidene)hydrazinecarbothioamide]
3.2 ± 0.091 µM | 16.27 ± 0.093 µM | CC(=NNC(N)=S)c1cccc(OCc2cn(Cc3cc(=O)c(O)co3)nn2)c1 [Compound 6v, 2-(1-(3-((1-((5-Hydroxy-4-oxo-4H-pyran-2-yl)methyl)-1H-1,2,3-triazol-4-yl)methoxy)phenyl)ethylidene)hydrazinecarbothioamide]
55.48 ± 0.04 µM | 27.25 ± 0.015 µM | O=C1O[C@H]([C@@H](O)CO)C(O)=C1O [Vitamin C, Ascorbic acid, reference compound]
